Measurements from PMC6943536, “Free and Bound Phenolics of Buckwheat Varieties: HPLC Characterization, Antioxidant Activity, and Inhibitory Potency towards α-Glucosidase with Molecular Docking Analysis” (Antioxidants, 2019).
Converted amounts (≈) assume the structure as drawn.

Target: T1, α-glucosidase
T1 construct: gene MAL12; PDB 3A4A isomaltase is only a docking homologue
Assay: pNPG hydrolysis, absorbance […] nm
Assay type: biochemical, Saccharomyces cerevisiae
Details: 5 mM p-NPG stock (100 µL of 250 µL), 0.1 M phosphate buffer pH 6.8, 37 °C, 10 min preincubation

Row | IC50 [µg/mL] | SMILES
1 | 447.50 ± 17.27 (≈ 753 µM) | C[C@@H]1O[C@@H](OC[C@H]2O[C@@H](Oc3c(-c4ccc(O)cc4)oc4cc(O)cc(O)c4c3=O)[C@H](O)[C@@H](O)[C@@H]2O)[C@H](O)[C@H](O)[C@H]1O [kaempferol-3-O-rutinoside]
2 | 114.45 ± 0.31 (≈ 357 µM) | O=C1c2c(O)cc(O)cc2O[C@H](c2cc(O)c(O)c(O)c2)[C@H]1O [dihydromyricetin]
